# Source: patent US8329904B2, “Azacyclic derivatives” (Hoffmann-La Roche Inc., priority 2009, dated 2012)
# Biological target: T1, human HSL (Homo sapiens, UniProt Q05469)
# T1 construct: overlapping PCR to generate a full length human HSL ORF with a 3′-His6 tag; His6 (C); made in house; host or cells: High 5 insect cells (baculovirus, pFast-BAC)
# T1 sequence (Q05469 1-1076): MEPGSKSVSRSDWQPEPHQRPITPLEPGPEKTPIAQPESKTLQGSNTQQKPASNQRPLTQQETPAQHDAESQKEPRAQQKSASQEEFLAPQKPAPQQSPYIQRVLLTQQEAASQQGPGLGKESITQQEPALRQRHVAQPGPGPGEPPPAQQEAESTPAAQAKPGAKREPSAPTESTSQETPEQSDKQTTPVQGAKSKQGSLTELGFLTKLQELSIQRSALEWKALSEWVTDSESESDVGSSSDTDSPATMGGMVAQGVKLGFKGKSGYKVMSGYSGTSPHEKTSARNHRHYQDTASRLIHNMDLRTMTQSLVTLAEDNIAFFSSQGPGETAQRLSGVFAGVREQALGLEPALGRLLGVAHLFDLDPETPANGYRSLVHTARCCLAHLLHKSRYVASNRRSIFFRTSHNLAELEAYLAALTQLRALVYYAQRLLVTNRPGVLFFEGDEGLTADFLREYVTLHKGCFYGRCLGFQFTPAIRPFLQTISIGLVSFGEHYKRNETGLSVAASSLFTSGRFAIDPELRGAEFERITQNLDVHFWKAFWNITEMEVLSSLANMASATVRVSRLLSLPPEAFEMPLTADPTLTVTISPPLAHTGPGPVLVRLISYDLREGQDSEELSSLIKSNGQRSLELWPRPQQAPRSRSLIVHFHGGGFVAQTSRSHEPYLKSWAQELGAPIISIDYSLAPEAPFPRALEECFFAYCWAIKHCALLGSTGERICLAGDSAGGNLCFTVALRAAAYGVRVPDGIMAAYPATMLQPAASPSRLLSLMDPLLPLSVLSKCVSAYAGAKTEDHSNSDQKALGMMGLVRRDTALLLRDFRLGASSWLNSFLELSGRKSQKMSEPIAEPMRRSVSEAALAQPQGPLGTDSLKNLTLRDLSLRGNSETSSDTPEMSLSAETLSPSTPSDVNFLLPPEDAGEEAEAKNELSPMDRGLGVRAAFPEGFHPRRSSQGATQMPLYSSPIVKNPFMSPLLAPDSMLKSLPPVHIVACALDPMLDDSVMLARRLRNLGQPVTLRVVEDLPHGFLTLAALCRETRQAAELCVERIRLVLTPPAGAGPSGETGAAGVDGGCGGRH
# Test: Human Hormone-Sensitive Lipase (HSL) Enzyme Inhibition Assay
# Type: biochemical
# Details: colorimetric assay, 2,3-dimercapto-1-propanol tributyrate (DMPT) substrate, 37° C. for 20 minutes, absorbance at 405 nm; read-out: HSL hum IC50
# Procedure, shortened: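 Colorimetric thioester hydrolysis: compounds in DMSO series mixed with DMPT (1.5 mM) in MOPS pH 7.2 with BSA, then baculovirus-expressed His6-tagged full-length human HSL added, 37° C, 20 min. DTNB plus detergents added, 15 min room temperature, absorbance at 405 nm.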
row,SMILES,IC50 [nM]
1,"CCCCCN(C)C(=O)N1CCC2(CC1)CCN(c1ccc(OC(F)(F)F)cc1)C2=O [Example 273, 1-Oxo-2-(4-trifluoromethoxy-phenyl)-2,8-diaza-spiro[4.5]decane-8-carboxylic acid methyl-pentyl-amide]",80
2,"CCN(CCOC)C(=O)N1CCC2(CC1)CCN(c1ccc(OC(F)(F)F)cc1)C2=O [Example 274, 1-Oxo-2-(4-trifluoromethoxy-phenyl)-2,8-diaza-spiro[4.5]decane-8-carboxylic acid ethyl-(2-methoxy-ethyl)-amide]",140
3,"CN(C(=O)N1CCC2(CC1)CCN(c1ccc(OC(F)(F)F)cc1)C2=O)c1ccccc1 [Example 275, 1-Oxo-2-(4-trifluoromethoxy-phenyl)-2,8-diaza-spiro[4.5]decane-8-carboxylic acid methyl-phenyl-amide]",60
4,"CN(C(=O)N1CCC2(CC1)CCN(c1ccc(OC(F)(F)F)cc1)C2=O)C1CCCCC1 [Example 276, 1-Oxo-2-(4-trifluoromethoxy-phenyl)-2,8-diaza-spiro[4.5]decane-8-carboxylic acid cyclohexyl-methyl-amide]",70
5,"O=C(N1CCC2(CC1)CCN(c1ccc(OC(F)(F)F)cc1)C2=O)N1Cc2ccccc2C1 [Example 277, 8-(1,3-Dihydro-isoindole-2-carbonyl)-2-(4-trifluoromethoxy-phenyl)-2,8-diaza-spiro[4.5]decan-1-one]",260
6,"CN(Cc1ccccc1)C(=O)N1CCC2(CC1)CCN(c1ccc(OC(F)(F)F)cc1)C2=O [Example 278, 1-Oxo-2-(4-trifluoromethoxy-phenyl)-2,8-diaza-spiro[4.5]decane-8-carboxylic acid benzyl-methyl-amide]",120
7,"CCN(C(=O)N1CCC2(CC1)CCN(c1ccc(OC(F)(F)F)cc1)C2=O)c1ccccc1 [Example 279, 1-Oxo-2-(4-trifluoromethoxy-phenyl)-2,8-diaza-spiro[4.5]decane-8-carboxylic acid ethyl-phenyl-amide]",40
8,"CN(C(=O)N1CCC2(CC1)CCN(c1ccc(OC(F)(F)F)cc1)C2=O)c1cccc(F)c1 [Example 280, 1-Oxo-2-(4-trifluoromethoxy-phenyl)-2,8-diaza-spiro[4.5]decane-8-carboxylic acid (3-fluoro-phenyl)-methyl-amide]",90
9,"O=C(N1CCC2(CC1)CCN(c1ccc(OC(F)(F)F)cc1)C2=O)N1CCCc2ccccc21 [Example 281, 8-(3,4-Dihydro-2H-quinoline-1-carbonyl)-2-(4-trifluoromethoxy-phenyl)-2,8-diaza-spiro[4.5]decan-1-one]",110
10,"CN(CCc1ccccc1)C(=O)N1CCC2(CC1)CCN(c1ccc(OC(F)(F)F)cc1)C2=O [Example 282, 1-Oxo-2-(4-trifluoromethoxy-phenyl)-2,8-diaza-spiro[4.5]decane-8-carboxylic acid methyl-phenethyl-amide]",130
11,"CN(CCc1ccccn1)C(=O)N1CCC2(CC1)CCN(c1ccc(OC(F)(F)F)cc1)C2=O [Example 283, 1-Oxo-2-(4-trifluoromethoxy-phenyl)-2,8-diaza-spiro[4.5]decane-8-carboxylic acid methyl-(2-pyridin-2-yl-ethyl)-amide]",140
12,"CCN(CCc1ccccn1)C(=O)N1CCC2(CC1)CCN(c1ccc(OC(F)(F)F)cc1)C2=O [Example 284, 1-Oxo-2-(4-trifluoromethoxy-phenyl)-2,8-diaza-spiro[4.5]decane-8-carboxylic acid ethyl-(2-pyridin-2-yl-ethyl)-amide]",150
13,"CC(C)NS(=O)(=O)N1CCC2(CCN(c3ccc(OC(F)(F)F)cc3)C2=O)CC1 [Example 285, 1-Oxo-2-(4-trifluoromethoxy-phenyl)-2,8-diaza-spiro[4.5]decane-8-sulfonic acid isopropylamide]",70
14,"O=C1N(c2ccc(OC(F)(F)F)cc2)CCC12CCN(S(=O)(=O)Nc1ccccc1)CC2 [Example 286, 1-Oxo-2-(4-trifluoromethoxy-phenyl)-2,8-diaza-spiro[4.5]decane-8-sulfonic acid phenylamide]",60
15,"O=C1N(c2ccc(OC(F)(F)F)cc2)CCC12CCN(S(=O)(=O)NCc1ccccc1)CC2 [Example 287, 1-Oxo-2-(4-trifluoromethoxy-phenyl)-2,8-diaza-spiro[4.5]decane-8-sulfonic acid benzylamide]",50
16,"CC(CNS(=O)(=O)N1CCC2(CCN(c3ccc(OC(F)(F)F)cc3)C2=O)CC1)c1ccccc1 (stereo not shown) [Example 288, 1-Oxo-2-(4-trifluoromethoxy-phenyl)-2,8-diaza-spiro[4.5]decane-8-sulfonic acid (2-phenyl-propyl)-amide]",150
17,"COCCNS(=O)(=O)N1CCC2(CCN(c3ccc(OC(F)(F)F)cc3)C2=O)CC1 [Example 289, 1-Oxo-2-(4-trifluoromethoxy-phenyl)-2,8-diaza-spiro[4.5]decane-8-sulfonic acid (2-methoxy-ethyl)-amide]",230
18,"CCNS(=O)(=O)N1CCC2(CCN(c3ccc(OC(F)(F)F)cc3)C2=O)CC1 [Example 290, 1-Oxo-2-(4-trifluoromethoxy-phenyl)-2,8-diaza-spiro[4.5]decane-8-sulfonic acid ethylamide]",160
19,"CCN(CC)S(=O)(=O)N1CCC2(CCN(c3ccc(OC(F)(F)F)cc3)C2=O)CC1 [Example 291, 1-Oxo-2-(4-trifluoromethoxy-phenyl)-2,8-diaza-spiro[4.5]decane-8-sulfonic acid diethylamide]",90
20,"CN(CCO)S(=O)(=O)N1CCC2(CCN(c3ccc(OC(F)(F)F)cc3)C2=O)CC1 [Example 292, 1-Oxo-2-(4-trifluoromethoxy-phenyl)-2,8-diaza-spiro[4.5]decane-8-sulfonic acid (2-hydroxy-ethyl)-methyl-amide]",200
21,"CC(C)CN(C)S(=O)(=O)N1CCC2(CCN(c3ccc(OC(F)(F)F)cc3)C2=O)CC1 [Example 293, 1-Oxo-2-(4-trifluoromethoxy-phenyl)-2,8-diaza-spiro[4.5]decane-8-sulfonic acid isobutyl-methyl-amide]",80
22,"CCN(CCOC)S(=O)(=O)N1CCC2(CCN(c3ccc(OC(F)(F)F)cc3)C2=O)CC1 [Example 294, 1-Oxo-2-(4-trifluoromethoxy-phenyl)-2,8-diaza-spiro[4.5]decane-8-sulfonic acid ethyl-(2-methoxy-ethyl)-amide]",90
23,"CN(c1ccccc1)S(=O)(=O)N1CCC2(CCN(c3ccc(OC(F)(F)F)cc3)C2=O)CC1 [Example 295, 1-Oxo-2-(4-trifluoromethoxy-phenyl)-2,8-diaza-spiro[4.5]decane-8-sulfonic acid methyl-phenyl-amide]",70
24,"CN(Cc1ccccc1)S(=O)(=O)N1CCC2(CCN(c3ccc(OC(F)(F)F)cc3)C2=O)CC1 [Example 296, 1-Oxo-2-(4-trifluoromethoxy-phenyl)-2,8-diaza-spiro[4.5]decane-8-sulfonic acid benzyl-methyl-amide]",70
25,"CN(CCc1ccccc1)S(=O)(=O)N1CCC2(CCN(c3ccc(OC(F)(F)F)cc3)C2=O)CC1 [Example 297, 1-Oxo-2-(4-trifluoromethoxy-phenyl)-2,8-diaza-spiro[4.5]decane-8-sulfonic acid methyl-phenethyl-amide]",110
26,"CN(CCc1ccccn1)S(=O)(=O)N1CCC2(CCN(c3ccc(OC(F)(F)F)cc3)C2=O)CC1 [Example 298, 1-Oxo-2-(4-trifluoromethoxy-phenyl)-2,8-diaza-spiro[4.5]decane-8-sulfonic acid methyl-(2-pyridin-2-yl-ethyl)-amide]",160
27,"CN(C(=O)N1CCC2(CC1)CCN(c1ccc(OC(F)(F)F)cc1)C2=O)c1ccc(C(F)(F)F)cc1 [Example 299, 1-Oxo-2-(4-trifluoromethoxy-phenyl)-2,8-diaza-spiro[4.5]decane-8-carboxylic acid methyl-(4-trifluoromethyl-phenyl)-amide]",170
28,"CN(C(=O)N1CCC2(CC1)CCN(c1ccc(OC(F)(F)F)cc1)C2=O)c1ccc(Cl)cc1 [Example 300, 1-Oxo-2-(4-trifluoromethoxy-phenyl)-2,8-diaza-spiro[4.5]decane-8-carboxylic acid (4-chloro-phenyl)-methyl-amide]",60
